Here are results for 16 molecules from US10898469B2, “Imidazolylamide derivative” (Sumitomo Dainippon Pharma Co., Ltd., priority 2016, dated 2021).

What all share (format): cell-based, human
Assay [1] deals with HT-29 cells. In words: Inhibition test for sphere-forming ability of cancer cells in the presence of BSA (Test Example 2), HT-29. The settings on record: in the presence of 5% BSA, cultured 4 days. As for the experimental part:
(§1) Human colorectal cancer-derived HCT-116 cells, human colon-adenocarcinoma-derived HT-29 cells, and human pharyngeal cancer-derived FaDu cells were available from American Type Culture Collection (ATCC). HCT-116 cells and HT-29 cells were cultured at 37° C. under 5% CO2 using the McCoy's 5a medium containing 10% fetal bovine serum (FBS) and 1% penicillin/streptomycin, and FaDu cells were cultured at 37° C. under 5% CO2 using the MEM medium containing 10% FBS, 1% non-essential amino acid, 1% sodium pyruvate, 5% bovine serum albumin (BSA), and 1% penicillin/streptomycin. HCT-116 cells, HT-29 cells, and FaDu cells were seeded in a 384 Well Black Clear Bottom Ultra-Low Attachment Microplate (Corning Cat. No. 3827) in an amount of 350-800 cells/well using the DMEM/F12 medium containing 2% B27 supplement (GIBCO), 20 ng/mL epidermal growth factor (EGF) (peprotech), 10 ng/mL basic fibroblast growth factor (bFGF) (peprotech), 5 μg/mL insulin (Sigma), 5% bovine serum albumin (BSA), and 1% penicillin/streptomycin. Each test compound was added into each well to adjust the final concentration of DMSO to 0.1%, and the cells were cultured for 4 days. The number of viable cells in each well was then measured with CellTiter-Glo® Luminescent Cell Viability Assay (Promega) to calculate the concentration of each test compound for 50% inhibition of cell proliferation (Sphere IC50 value; μmol/L).
(§2) The experiment of Test Example 2 was performed for each compound of each Example.
(§3) The concentration of each test compound for 50% inhibition of cell proliferation (Sphere IC50 value; μmol/L) is shown in the following Table.

Assay [2] deals with FaDu cells. Nature of the assay: Inhibition test for sphere-forming ability of cancer cells (Test Example 1), FaDu. Conditions: concentration for 50% inhibition of cell proliferation, read-out: IC50 (μmol/L) FaDu (Sphere IC50 value). The method in brief:
(§4)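 Under non-adherent, serum-free conditions with growth factors (EGF 20 ng/mL, bFGF 10 ng/mL), 350-800 cells per well formed spheres in the presence of test compound at 0.1% DMSO. Viable cell number after 4 days, by CellTiter-Glo, defined the 50% inhibitory concentration.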

Assay [3] deals with HCT-116 cells. In words: Inhibition test for sphere-forming ability of cancer cells in the presence of BSA (Test Example 2), HCT-116. The settings on record: for IC50: HCT-116 cells, in the presence of 5% BSA, cultured 4 days; for inhibitory effect on the sphere-forming ability of cancer cells: Test Example 2, in the presence of 5% BSA, summary in words, cell line not given (HCT-116, HT-29, FaDu tested). The method in brief: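 Spheres grown 4 days in ultra-low-attachment wells, 350-800 cells/well, in DMEM/F12 with 2% B27, 20 ng/mL EGF, 10 ng/mL bFGF, 5 μg/mL insulin and 5% BSA; 0.1% DMSO final. Viable cells read by CellTiter-Glo luminescence; Sphere IC50 (μmol/L) for 50% proliferation inhibition.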

Assay [4] concerns HT-29 cells. In words: Inhibition test for sphere-forming ability of cancer cells (Test Example 1), HT-29. The settings on record: concentration for 50% inhibition of cell proliferation, read-out: IC50 (μmol/L) HT-29 (Sphere IC50 value). The method in brief:
as §4

Assay [5] deals with FaDu cells. Nature of the assay: Inhibition test for sphere-forming ability of cancer cells in the presence of BSA (Test Example 2), FaDu. The settings on record: in the presence of 5% BSA, cultured 4 days. As for the experimental part: as §1, §2, §3
In assay [6] the test system is HCT-116 cells. Nature of the assay: Inhibition test for sphere-forming ability of cancer cells (Test Example 1), HCT-116. Conditions: for IC50: HCT-116 cells, concentration for 50% inhibition of cell proliferation, read-out: IC50 (μmol/L) HCT-116 (Sphere IC50 value); for inhibitory effect on the sphere-forming ability of cancer cells: Test Example 1, summary in words, cell line not given (HCT-116, HT-29, FaDu tested). The method in brief:
as §4

Where a name gives a salt, the structure may show the parent alone.

Regarding `O=C(/C=C/c1ccc(F)c(OCCO)c1)Nc1cn(Cc2cccc(C(F)(F)F)c2)cn1` [Example 39, (E)-3-(4-Fluoro-3-(2-hydroxyethoxy)phenyl)-N-(1-(3-(trifluoromethyl)benzyl)-1H-imidazol-4-yl)acrylamide Hydrochloride], the IC50 in the assay with HT-29 cells [1] (Homo sapiens, 96 h) worked out at 2710 nM; with FaDu cells [2] (Homo sapiens) it was 0.07 µmol/L; with HCT-116 cells [3] (Homo sapiens, HCT-116, 96 h), 6860 nM; in the assay with HT-29 cells [4] (Homo sapiens) it was 0.45 µmol/L; with FaDu cells [5] (Homo sapiens, 96 h) it was 580 nM; with HCT-116 cells [6] (Homo sapiens) it was 0.42 µmol/L.
Regarding `COc1ccc(C(=O)Nc2cn(Cc3ccc(F)cc3)cn2)cc1OC` [Example 146], the IC50 amounted to 810 nM in the assay on HT-29 cells [1]; 0.8 µmol/L in the assay with FaDu cells [2]; 6020 nM in the assay with HCT-116 cells [3]; 0.74 µmol/L in the assay on HT-29 cells [4]; 550 nM in the assay on FaDu cells [5]; 0.64 µmol/L in the assay on HCT-116 cells [6].
On to `CC(=O)Nc1ccc(/C=C/C(=O)Nc2cn(Cc3cccc(OC(F)(F)F)c3)cn2)cc1` [Example 10, (2E)-3-[4-(acetylamino)phenyl]-N-{1-[3-(trifluoromethoxy)benzyl]-1H-imidazol-4-yl}prop-2-enamide], for which the IC50 with HT-29 cells [1] (Homo sapiens, 96 h) was found to be 550 nM; in the assay on FaDu cells [2] (Homo sapiens) it was 0.07 µmol/L; in the assay on HCT-116 cells [3] (Homo sapiens, HCT-116, 96 h), 830 nM; in the assay with HT-29 cells [4] (Homo sapiens), 0.07 µmol/L; in the assay on FaDu cells [5] (Homo sapiens, 96 h), 280 nM; in the assay on HCT-116 cells [6] (Homo sapiens), 0.63 µmol/L.
Take `O=C(Nc1cn(Cc2cccc(Cl)c2)cn1)c1cnc2[nH]ccc2c1` [Example 177]: the IC50 in the assay with HT-29 cells [1] was 6390 nM; with FaDu cells [2] it was 3.62 µmol/L; with HCT-116 cells [3], over 10000 nM; with HT-29 cells [4], 6.75 µmol/L; with FaDu cells [5] it was 5260 nM; in the assay with HCT-116 cells [6], 9.96 µmol/L.
Regarding `COc1ccc(C(=O)Nc2cn(Cc3cccc(F)c3)cn2)cc1OC` [Example 145], the IC50 came to 630 nM in the assay on HT-29 cells [1]; 0.7 µmol/L in the assay with FaDu cells [2]; 1620 nM with HCT-116 cells [3]; 0.62 µmol/L in the assay on HT-29 cells [4]; 340 nM in the assay on FaDu cells [5]; 0.62 µmol/L in the assay with HCT-116 cells [6].
In the case of `O=C(/C=C/c1ccc(NCC(F)(F)F)nc1)Nc1cn(Cc2cccc(Cl)c2)cn1` [Example 15], the IC50 is 60 nM in the assay on HT-29 cells [1]; 0.07 µmol/L in the assay on FaDu cells [2]; 80 nM in the assay with HCT-116 cells [3]; 0.06 µmol/L in the assay on HT-29 cells [4]; 60 nM with FaDu cells [5]; under 0.01 µmol/L in the assay with HCT-116 cells [6]. Moreover, the “inhibitory effect on the sphere-forming ability of cancer cells” value (“inhibitory effect” below) in the assay with HCT-116 cells [3] and in the assay with HCT-116 cells [6] was “particularly potent inhibitory effect” throughout.
In the case of `Cl.O=C(/C=C/c1ccc(F)c(O)c1)Nc1cn(Cc2cccc(Cl)c2)cn1` [Example 38], the IC50 with HT-29 cells [1] (Homo sapiens, 96 h) was 580 nM; with FaDu cells [2] (Homo sapiens), under 0.01 µmol/L; with HCT-116 cells [3] (Homo sapiens, HCT-116, 96 h), 720 nM; in the assay on HT-29 cells [4] (Homo sapiens), 0.89 µmol/L; with FaDu cells [5] (Homo sapiens, 96 h), 30 nM; with HCT-116 cells [6] (Homo sapiens) it was 0.15 µmol/L. Besides, the “inhibitory effect” value in the assay with HCT-116 cells [6] is on record as “particularly potent inhibitory effect”.
As for `Cl.O=C(/C=C/c1ccc(F)c(O)c1)Nc1cn(Cc2cccc(C(F)(F)F)c2)cn1` [Example 37, (E)-3-(4-Fluoro-3-hydroxyphenyl)-N-(1-(3-(trifluoromethyl)benzyl)-1H-imidazol-4-yl)acrylamide Hydrochloride], the IC50 in the assay with HT-29 cells [1] (Homo sapiens, 96 h) is 100 nM; in the assay with FaDu cells [2] (Homo sapiens), under 0.01 µmol/L; in the assay with HCT-116 cells [3] (Homo sapiens, HCT-116, 96 h), 550 nM; in the assay with HT-29 cells [4] (Homo sapiens), 0.93 µmol/L; in the assay on FaDu cells [5] (Homo sapiens, 96 h) it was under 10 nM; in the assay with HCT-116 cells [6] (Homo sapiens) it was 0.25 µmol/L. Moreover, the “inhibitory effect” value in the assay on HCT-116 cells [3] and with HCT-116 cells [6] was “particularly potent inhibitory effect” in each case.
Take `CC(=O)Nc1ccc(/C=C/C(=O)Nc2cn(Cc3cccc(C(F)(F)F)c3)cn2)cc1` [Example 8, (2E)-3-[4-(acetylamino)phenyl]-N-{1-[3-(trifluoromethyl)benzyl]-1H-imidazol-4-yl}prop-2-enamide]: the IC50 in the assay on HT-29 cells [1] (Homo sapiens, 96 h) was found to be 370 nM; in the assay on FaDu cells [2] (Homo sapiens) it was 0.06 µmol/L; with HCT-116 cells [3] (Homo sapiens, HCT-116, 96 h) it was 630 nM; with HT-29 cells [4] (Homo sapiens), 0.05 µmol/L; with FaDu cells [5] (Homo sapiens, 96 h), 70 nM; in the assay on HCT-116 cells [6] (Homo sapiens), 0.31 µmol/L. The “inhibitory effect” value in the assay on HCT-116 cells [3] and with HCT-116 cells [6] was “particularly potent inhibitory effect” each time.
Turning to `O=C(/C=C/c1cccnc1)Nc1cn(Cc2cccc(Cl)c2)cn1` [Example 41, (2E)-N-[1-(3-chlorobenzyl)-1H-imidazol-4-yl]-3-(pyridin-3-yl)prop-2-enamide], the IC50 was 4290 nM with HT-29 cells [1] (Homo sapiens, 96 h); 0.73 µmol/L in the assay with FaDu cells [2] (Homo sapiens); 5790 nM in the assay with HCT-116 cells [3] (Homo sapiens, HCT-116, 96 h); 0.54 µmol/L with HT-29 cells [4] (Homo sapiens); 590 nM in the assay with FaDu cells [5] (Homo sapiens, 96 h); 0.89 µmol/L with HCT-116 cells [6] (Homo sapiens).
`O=C(/C=C/c1ccc(NCC(F)F)nc1)Nc1cn(Cc2cccc(Cl)c2)cn1` [Example 14, (E)-N-(1-(3-Chlorobenzyl)-1H-imidazol-4-yl)-3-(6-((2,2-difluoroethyl)amino)pyridin-3-yl)acrylamide]: the IC50 was 60 nM with HT-29 cells [1] (Homo sapiens, 96 h); 0.04 µmol/L with FaDu cells [2] (Homo sapiens); 360 nM in the assay on HCT-116 cells [3] (Homo sapiens, HCT-116, 96 h); under 0.01 µmol/L with HT-29 cells [4] (Homo sapiens); 60 nM in the assay with FaDu cells [5] (Homo sapiens, 96 h); 0.06 µmol/L with HCT-116 cells [6] (Homo sapiens). Besides, the “inhibitory effect” value in the assay on HCT-116 cells [3] and in the assay with HCT-116 cells [6] was “particularly potent inhibitory effect” in each case.
On to `COc1ccc(C(=O)Nc2cn(Cc3ccc(F)cc3F)cn2)cc1OC` [Example 148], for which the IC50 was 6780 nM in the assay on HT-29 cells [1]; 8 µmol/L with FaDu cells [2]; over 10000 nM in the assay with HCT-116 cells [3]; 4.74 µmol/L in the assay on HT-29 cells [4]; 5060 nM in the assay on FaDu cells [5]; 5.2 µmol/L with HCT-116 cells [6].
With `CNc1ccc(C(=O)Nc2cn(Cc3cccc(Cl)c3)cn2)cn1` [Example 225], the IC50 in the assay on HT-29 cells [1] is 6520 nM; with FaDu cells [2] it was 6 µmol/L; with HCT-116 cells [3] it was over 10000 nM; with HT-29 cells [4], 0.99 µmol/L; with FaDu cells [5], 5900 nM; in the assay with HCT-116 cells [6], 6.76 µmol/L.
Consider `N#Cc1ccc(/C=C/C(=O)Nc2cn(Cc3cccc(Cl)c3)cn2)cc1OCCO` [Example 35, (2E)-N-[1-(3-chlorobenzyl)-1H-imidazol-4-yl]-3-[4-cyano-3-(2-hydroxyethoxy)phenyl]prop-2-enamide], for which the IC50 stood at 540 nM in the assay with HT-29 cells [1] (Homo sapiens, 96 h); 0.08 µmol/L in the assay on FaDu cells [2] (Homo sapiens); 720 nM in the assay with HCT-116 cells [3] (Homo sapiens, HCT-116, 96 h); 0.07 µmol/L in the assay with HT-29 cells [4] (Homo sapiens); 60 nM in the assay with FaDu cells [5] (Homo sapiens, 96 h); 0.08 µmol/L with HCT-116 cells [6] (Homo sapiens). The “inhibitory effect” value in the assay with HCT-116 cells [6] is given as “particularly potent inhibitory effect”.
Consider `CNc1ccc(/C=C/C(=O)Nc2cn(Cc3cccc(C(F)(F)F)c3)cn2)cn1` [Example 17], for which the IC50 is 350 nM in the assay on HT-29 cells [1]; 0.08 µmol/L in the assay on FaDu cells [2]; 640 nM in the assay with HCT-116 cells [3]; 0.04 µmol/L with HT-29 cells [4]; 50 nM in the assay with FaDu cells [5]; 0.08 µmol/L in the assay with HCT-116 cells [6]. The “inhibitory effect” value with HCT-116 cells [3] and in the assay on HCT-116 cells [6] was “particularly potent inhibitory effect” in each case.
`COc1ccc(C(=O)Nc2cn(Cc3c(F)c(F)c(F)c(F)c3F)cn2)cc1OC` [Example 157]: the IC50 was 7420 nM in the assay with HT-29 cells [1]; 8.46 µmol/L in the assay on FaDu cells [2]; over 10000 nM in the assay with HCT-116 cells [3]; 6.89 µmol/L in the assay with HT-29 cells [4]; 5640 nM with FaDu cells [5]; 7.33 µmol/L with HCT-116 cells [6].
